Data set [1] in a line: Study of the stability of the crystal forms (HPLC purity and XRPD crystal form, Day 7). The settings on record: for XRPD peaks / crystallinity / HPLC purity change / crystal form stability: 25° C.-60% RH and 40° C.-75% RH; for Purity %: HPLC purity, Day 7, spread flat in the air; for Crystal form: XRPD, Day 7; for chemical stability: conclusion from Table 7. The format is physicochemical. The procedure:
Example 13. Study of the Stability of the Crystal Forms
The samples of crystal forms A, B, C, D and F were spread flat in the air to test sample stability under conditions of 4° C., 25° C.-60% relative humidity (RH) and 40° C.-75% relative humidity (RH). The sampling was carried out on Day 7. The HPLC purity and crystal form stability of the samples were studied.
The XRPD spectrums of the samples of crystal forms A, B, C, D and F under conditions of 25° C.-60% RH and 40° C.-75% RH are shown in FIGS. 7 to 16.
It can be seen that the stability of crystal forms B and F is better than that of crystal forms A, C and D.

The test system of a further data set is human blood. Briefly: In vitro anticoagulant effect on human blood (APTT detection in plasma). The format is biochemical. The procedure:
Test Example 2: Determination of In Vitro Anticoagulant Effect of the Compound of the Present Invention on Human Blood
1. Experimental Materials
Plasma: human blood was collected in blood collection tubes free of anticoagulant, and then 3.8% sodium citrate (volume ratio 1:9) was added. The tubes were centrifuged at 2500 rpm for 10 minutes at room temperature, and then the plasma was collected and stored at −80° C.;
Reagents: APTT reagent (Activated partial thromboplastin time assay kit, SIEMENS, No. B4218-1), calcium chloride solution;
Instrument: coagulation instrument (SYSMEX, CA-500).
The separated plasma was melted at room temperature and mixed well. 10000 μM of test compound dissolved in 100% DMSO was diluted to 3000, 300, 200, 150, 75, 30, 10, 3, 0.3 μM with 100% DMSO, and the blank was 100% DMSO. The reagent, plasma, and compounds were placed in corresponding positions in the coagulation instrument, and APTT detection of the compound was carried out.
Curve fitting was carried out by Prism, and CT2 (i.e., the concentration of the compound corresponding to 2 times the APTT of the blank control) was calculated. CT2=2.0.

The structures appear in SMILES notation.

Six compounds from US11299462B2, “Crystal form of oxopicolinamide derivative and preparation method therefor” (JIANGSU HENGRUI MEDICINE CO., LTD., priority 2018, dated 2022) can be followed below.

With `COc1cn([C@@H](Cc2ccccc2)C(=O)Nc2ccc(C(=O)O)cc2)c(=O)cc1-c1cc(Cl)ccc1C(C)=O` [Crystal form A, (S)-4-(2-(4-(2-Acetyl-5-chlorophenyl)-5-methoxy-2-oxopyridin-1(2H)-yl)-3-phenylpropanamido)benzoic acid], in data set [1], the XRPD peaks result is recorded as “have changed with the loss of some peak characters”, the crystallinity entry was “has decreased” and the chemical stability entry is reported as “good”. Moreover, in data set [1] (4° C.), the Purity % is recorded as 98.94% and the Crystal form result is reported as “Same”. In data set [1] (25° C. 60% RH), the Purity % is 98.99% and the Crystal form entry is reported as “Different”. Besides, in data set [1] (40° C. 75% RH), the Purity % is given as 99.01% and the Crystal form entry is given as “Different”.
As to `COc1cn([C@@H](Cc2ccccc2)C(=O)Nc2ccc(C(=O)O)cc2)c(=O)cc1-c1cc(Cl)ccc1C(C)=O` [Crystal form B, (S)-4-(2-(4-(2-Acetyl-5-chlorophenyl)-5-methoxy-2-oxopyridin-1(2H)-yl)-3-phenylpropanamido)benzoic acid], in data set [1] (4° C.), the HPLC purity change entry is listed as “changed slightly”, the XRPD peaks entry is reported as “have not changed”, the crystal form stability result is listed as “stable” and the Purity % was 99.13%. Besides, the Crystal form result in data set [1] (4° C.) is listed as “Same”. Moreover, in data set [1] (25° C. 60% RH), the Purity % worked out at 99.14% and the Crystal form result is given as “Same”. In data set [1] (40° C. 75% RH), the Purity % was found to be 99.13% and the Crystal form result is recorded as “Same”. The chemical stability entry in data set [1] is “good”.
With `COc1cn([C@@H](Cc2ccccc2)C(=O)Nc2ccc(C(=O)O)cc2)c(=O)cc1-c1cc(Cl)ccc1C(C)=O` [Crystal form C, (S)-4-(2-(4-(2-Acetyl-5-chlorophenyl)-5-methoxy-2-oxopyridin-1(2H)-yl)-3-phenylpropanamido)benzoic acid], in data set [1] (40° C.-75% RH), the XRPD result is given as “has also changed”. Moreover, the Purity % in data set [1] (4° C.) was 99.28%; in data set [1] (25° C. 60% RH), 99.29%; in data set [1] (40° C. 75% RH), 99.31%. The Crystal form entry in data set [1] (4° C.) is “Same”; in data set [1] (25° C. 60% RH) it was “Same”; in data set [1] (40° C. 75% RH), “Different”. Also, in data set [1], the chemical stability entry is recorded as “good”.
With `COc1cn([C@@H](Cc2ccccc2)C(=O)Nc2ccc(C(=O)O)cc2)c(=O)cc1-c1cc(Cl)ccc1C(C)=O` [Crystal form D, (S)-4-(2-(4-(2-acetyl-5-chlorophenyl)-5-methoxy-2-oxopyridin-1(2H)-yl)-3-phenylpropanamido)benzoic acid], in data set [1], the XRPD peaks result is recorded as “have changed with the loss of some peak characters”, the crystallinity result is listed as “has decreased” and the chemical stability result is reported as “good”. Further, in data set [1] (4° C.), the Purity % is reported as 98.4% and the Crystal form entry is given as “Same”. In addition, in data set [1] (25° C. 60% RH), the Purity % worked out at 98.15% and the Crystal form result is reported as “Different”. In addition, in data set [1] (40° C. 75% RH), the Purity % is 98.33% and the Crystal form entry was “Different”.
With `COc1cn([C@@H](Cc2ccccc2)C(=O)Nc2ccc(C(=O)O)cc2)c(=O)cc1-c1cc(Cl)ccc1C(C)=O` [Crystal form F, (S)-4-(2-(4-(2-Acetyl-5-chlorophenyl)-5-methoxy-2-oxopyridin-1(2H)-yl)-3-phenylpropanamido)benzoic acid], in data set [1] (4° C.), the HPLC purity change entry was “changed slightly”, the XRPD peaks entry is recorded as “have not changed”, the crystal form stability result was “stable” and the Purity % came out at 99.17%. Further, the Crystal form result in data set [1] (4° C.) is “Same”. For the same compound, in data set [1] (25° C. 60% RH), the Purity % turned out to be 99.33% and the Crystal form result is reported as “Same”. Also, in data set [1] (40° C. 75% RH), the Purity % was 99.21% and the Crystal form result is listed as “Same”. The chemical stability result in data set [1] was “good”.
With `COc1cn([C@@H](Cc2ccccc2)C(=O)Nc2ccc(C(=O)O)cc2)c(=O)cc1-c1cc(Cl)ccc1C(C)=O` [compound of formula (I), (S)-4-(2-(4-(2-acetyl-5-chlorophenyl)-5-methoxy-2-oxopyridin-1(2H)-yl)-3-phenylpropanamido) benzoic acid], in the data set on human blood, the “CT2 (concentration of the compound corresponding to 2 times the APTT of the blank control)” value stood at 2.0.
